Assay results taken from US20190169181A1, “FUMAGILLOL COMPOUNDS AND METHODS OF MAKING AND USING SAME” (Zafgen, Inc., priority 2016, published 2019).
Counter-ions that a name gives are not always drawn.

Assays:
[1] = molecular target: T1, recombinant human MetAP2 (Homo sapiens, UniProt P50579); test: Recombinant human MetAP2 enzyme inhibition assay (MAS peptide / amino acid oxidase / Amplex Ultrared readout); type: biochemical; details: Flag tagged human recombinant MetAP2, 25 minutes at 25° C.
T1 construct: Flag; made in house
T1 sequence (P50579 whole entry): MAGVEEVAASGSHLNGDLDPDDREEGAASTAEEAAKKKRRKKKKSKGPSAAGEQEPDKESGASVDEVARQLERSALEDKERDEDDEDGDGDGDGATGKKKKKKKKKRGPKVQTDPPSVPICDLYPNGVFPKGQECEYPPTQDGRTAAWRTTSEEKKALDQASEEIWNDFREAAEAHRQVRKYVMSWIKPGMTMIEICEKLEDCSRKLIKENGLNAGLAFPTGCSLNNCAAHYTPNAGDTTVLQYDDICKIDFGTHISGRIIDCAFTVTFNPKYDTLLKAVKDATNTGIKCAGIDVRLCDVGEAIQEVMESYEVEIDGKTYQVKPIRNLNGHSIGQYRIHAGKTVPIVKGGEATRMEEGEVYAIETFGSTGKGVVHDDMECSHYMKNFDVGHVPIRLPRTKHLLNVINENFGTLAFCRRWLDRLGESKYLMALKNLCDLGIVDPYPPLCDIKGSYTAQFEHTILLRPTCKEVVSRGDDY
Description: Compounds are tested for their capacity to inhibit recombinant human MetAP2 activity using the following assay.
Flag tagged Human recombinant MetAP2 expressed and isolated for use as the enzyme source. 10 mM stock solutions of compounds were prepared in 100% DMSO and further diluted in 100% DMSO required concentration to 1 mM stocks. The stock compound solutions and DMSO vehicle controls were diluted to target final compound concentrations using assay buffer to a final concentration of 50 mM HEPES containing 100 mM NaCl, pH adjusted to 7.5. The MAS peptide was formulated to a 7.5 mM stock in distilled water and prior to use further diluted 1:4. […] 40 μl of enzyme was mixed with 100 μl of MnCl2 then further diluted in assay buffer to a final concentration of 16 μg/ml. To test for compound effect on MetAP2 enzyme activity, 5 μl of test compound, 10 μl of MAS substrate/amino acid oxidase mixture, 10 μl of MetAP2 was added to test wells in a 384 well black plate with blank wells containing no enzyme, replaced with 10 μl of assay buffer. All compounds were tested in duplicate on two occasions on the same day.
The plate was sealed with a TopSeal A cover and mixed briefly on an orbital mixer at 900 rpm. The plate was incubated for a further 25 minutes at 25° C. A 5× stock of Amplex buffer was prepared (0.25 M sodium phosphate, pH 7.4) and stored at 4° C. […] Horse radish peroxidase was diluted in […] of Amplex buffer, 100 μl of this was combined with 50 μl of Amplex Ultrared in […] of 1× Amplex buffer to generate sufficient detection reagent for a 384 well plate. 25 μl detection reagent was added to each well of the test plate, which was re-sealed and mixed briefly on an orbital shaker. The plate was transferred to an Envision Multi-label reader and RFU measured corresponding to excitation 531 nm and emission 595 nm. At the end of the MetAP2 incubation 25 μl Amplex/HRP mixture per well was added and the plate read plate on a plate reader.

[2] = system: Diet Induced Obese (DIO) C57BL/6 mice; test: 10 day DIO mouse model, weight loss vs. vehicle; type: in vivo; details: 240 h; for inhibition in vivo at 0.3 mg/kg: 0.3 mpk sc once a day for 10 days; for inhibition in vivo at 1 mg/kg: 1.0 mpk sc once a day for 10 days
Excerpt: The objective of this study design was to investigate the efficacy of disclosed compounds in a 10 day DIO mouse model. Effects on body weight, food intake, hematology and blood chemistry were the primary readouts of this study design. Male, Diet Induced Obese (DIO) C57BL/6 mice, 19-21 weeks of age (13-15 weeks on high fat diet) were ordered from a certified vendor and upon receipt were housed on irradiated corncob bedding in micro-isolator cages on a 12-hour light-dark cycle (0700-1900) at 68-74° F. and 30-70% humidity. Mice were fed Research Diets D12492 (60% Kcal fat, 20% Kcal carbohydrate and 20% protein) and provided water ad libitum. DIO mice were received and housed in the facility for approximately two weeks prior to the start of test article administration. On Day −4 or −3, mice were randomized into study groups based on body weight and body weights were continued to be recorded daily for the duration of the study. Daily food intake was assessed starting on Study Day −2 by weighing of the food with hopper together to avoid loss of food in transfer.
Compounds were formulated into a 100% DMSO stock (at 9 mg/mL) prior to the start, and further diluted into the target working concentration using the vehicle of 10% DMSO in water. Prior to test article administration, starting on Day −3 a dosing acclimation occurred with all animals receiving a subcutaneous injection of vehicle (10% DMSO) only for 3 days. Starting on Day 1, test compounds or vehicle were administered based on individual body weight, subcutaneously, once a day for 10 days. All mice were sacrificed on Day 11, 24 hours following the final dosing on Day 10. After sacrifice, whole blood was collected and analyzed for hematology and blood chemistry parameters.
Compounds were tested for weight loss vs. vehicle at 0.3 and 1.0 mpk sc (mg per kg animal weight delivered subcutaneously), and the results are shown in Table 2 below.

Row | SMILES | IC50 [1] | inhibition in vivo at 0.3 mg/kg [2] | inhibition in vivo at 1 mg/kg [2]
1 | CO[C@@H]1[C@H](OC(=O)N[C@H](c2cnn(C[C@H]3CCN(C)C3)c2)C(C)C)CC[C@]2(CO2)[C@H]1[C@@]1(C)O[C@@H]1CC=C(C)C [Example 22, (3R,4S,5S,6R)-5-methoxy-4-((2R,3R)-2-methyl-3-(3-methylbut-2-enyl)oxiran-2-yl)-1-oxaspiro[2.5]octan-6-yl (S)-2-methyl-1-(1-(((S)-1-methylpyrrolidin-3-yl)methyl)-1H-pyrazol-4-yl)propylcarbamate formate] | 50 to 500 nM | 4.7% | –
2 | CO[C@@H]1[C@H](OC(=O)N[C@H](c2cn(C[C@@H]3CCN(CC(F)F)C3)cn2)C(C)C)CC[C@]2(CO2)[C@H]1[C@@]1(C)O[C@@H]1CC=C(C)C [Example 19, (3R,4S,5S,6R)-5-methoxy-4-((2R,3R)-2-methyl-3-(3-methylbut-2-enyl)oxiran-2-yl)-1-oxaspiro[2.5]octan-6-yl (S)-1-(1-(((R)-1-(2,2-difluoroethyl)pyrrolidin-3-yl)methyl)-1H-imidazol-4-yl)-2-methylpropylcarbamate] | 50 to 500 nM | 1.9% | –
3 | CO[C@@H]1[C@H](OC(=O)N[C@H](Cc2nnc(N)o2)C(C)C)CC[C@]2(CO2)[C@H]1[C@@]1(C)O[C@@H]1CC=C(C)C [Example 32, (3R,4S,5S,6R)-5-methoxy-4-((2R,3R)-2-methyl-3-(3-methylbut-2-enyl)oxiran-2-yl)-1-oxaspiro[2.5]octan-6-yl (R)-1-(5-amino-1,3,4-oxadiazol-2-yl)-3-methylbutan-2-ylcarbamate] | < 50 nM | 3.9% | 0.8%
4 | CO[C@@H]1[C@H](OC(=O)N[C@H](Cc2nnc(N)s2)C(C)C)CC[C@]2(CO2)[C@H]1[C@@]1(C)O[C@@H]1CC=C(C)C [Example 36, (3R,4S,5S,6R)-5-methoxy-4-((2R,3R)-2-methyl-3-(3-methylbut-2-en-1-yl)oxiran-2-yl)-1-oxaspiro[2.5]octan-6-yl ((R)-1-(5-amino-1,3,4-thiadiazol-2-yl)-3-methylbutan-2-yl)carbamate] | 50 to 500 nM | – | 2%
5 | CO[C@@H]1[C@H](OC(=O)N[C@@H](c2noc(=O)[nH]2)C(C)C)CC[C@]2(CO2)[C@H]1[C@@]1(C)O[C@@H]1CC=C(C)C [Example 11, (3R,4S,5S,6R)-5-methoxy-4-((2R,3R)-2-methyl-3-(3-methylbut-2-enyl)oxiran-2-yl)-1-oxaspiro[2.5]octan-6-yl (R)-2-methyl-1-(5-oxo-4,5-dihydro-1,2,4-oxadiazol-3-yl)propylcarbamate] | 50 to 500 nM | -1.3% | 6.6%
6 | CNc1nnc(C[C@H](NC(=O)O[C@@H]2CC[C@]3(CO3)[C@@H]([C@@]3(C)O[C@@H]3CC=C(C)C)[C@@H]2OC)C(C)C)s1 [Example 34, (3R,4S,5S,6R)-5-methoxy-4-((2R,3R)-2-methyl-3-(3-methylbut-2-enyl)oxiran-2-yl)-1-oxaspiro[2.5]octan-6-yl (S)-3-methyl-1-(5-(methylamino)-1,3,4-thiadiazol-2-yl)butan-2-ylcarbamate] | 50 to 500 nM | 3.4% | –
7 | CNc1nnc([C@H](NC(=O)O[C@@H]2CC[C@]3(CO3)[C@@H]([C@@]3(C)O[C@@H]3CC=C(C)C)[C@@H]2OC)C(C)C)o1 [Example 3, (3R,5S,6R)-5-methoxy-4-((2R,3R)-2-methyl-3-(3-methylbut-2-enyl)oxiran-2-yl)-1-oxaspiro[2.5]octan-6-yl (R)-2-methyl-1-(5-(methylamino)-1,3,4-oxadiazol-2-yl)propylcarbamate] | 50 to 500 nM | 1.1% | –
8 | CO[C@@H]1[C@H](OC(=O)N[C@H](c2cnn(C[C@@H]3CCN(C)C3)c2)C(C)C)CC[C@]2(CO2)[C@H]1[C@@]1(C)O[C@@H]1CC=C(C)C [Example 23, (3R,4S,5S,6R)-5-methoxy-4-((2R,3R)-2-methyl-3-(3-methylbut-2-enyl)oxiran-2-yl)-1-oxaspiro[2.5]octan-6-yl (S)-2-methyl-1-(1-(((R)-1-methylpyrrolidin-3-yl)methyl)-1H-pyrazol-4-yl)propylcarbamate] | 50 to 500 nM | 5.1% | –
9 | CO[C@@H]1[C@H](OC(=O)NCC(C)(C)c2nnc[nH]2)CC[C@]2(CO2)[C@H]1[C@@]1(C)O[C@@H]1CC=C(C)C [Example 39, (3R,4S,5S,6R)-5-methoxy-4-((2R,3R)-2-methyl-3-(3-methylbut-2-enyl)oxiran-2-yl)-1-oxaspiro[2.5]octan-6-yl 2-methyl-2-(4H-1,2,4-triazol-3-yl)propylcarbamate] | 50 to 500 nM | 3.4% | 7.6%
10 | CO[C@@H]1[C@H](OC(=O)N[C@H](c2ncc[nH]2)C(C)C)CC[C@]2(CO2)[C@H]1[C@@]1(C)O[C@@H]1CC=C(C)C [Example 4, (3R,4S,5S,6R)-5-methoxy-4-((2R,3R)-2-methyl-3-(3-methylbut-2-enyl)oxiran-2-yl)-1-oxaspiro[2.5]octan-6-yl (S)-1-(1H-imidazol-2-yl)-2-methylpropylcarbamate] | < 50 nM | 3.9% | 0.7%
11 | CO[C@@H]1[C@H](OC(=O)N[C@H](c2cn(C[C@H]3CCN(C)C3)c(C)n2)C(C)C)CC[C@]2(CO2)[C@H]1[C@@]1(C)O[C@@H]1CC=C(C)C [Example 24, (3R,4S,5S,6R)-5-methoxy-4-((2R,3R)-2-methyl-3-(3-methylbut-2-enyl)oxiran-2-yl)-1-oxaspiro[2.5]octan-6-yl (S)-2-methyl-1-(2-methyl-1-(((S)-1-methylpyrrolidin-3-yl)methyl)-1H-imidazol-4-yl)propylcarbamate] | 50 to 500 nM | 8.2% | –
12 | CO[C@@H]1[C@H](OC(=O)N[C@H](c2ccc(N3CCC3)nc2)C(C)C)CC[C@]2(CO2)[C@H]1[C@@]1(C)O[C@@H]1CC=C(C)C [Example 41, (3R,4S,5S,6R)-5-methoxy-4-((2R,3R)-2-methyl-3-(3-methylbut-2-enyl)oxiran-2-yl)-1-oxaspiro[2.5]octan-6-yl ((S)-1-(6-(azetidin-1-yl)pyridin-3-yl)-2-methylpropyl)carbamate] | < 50 nM | 11.7% | –
13 | CO[C@@H]1[C@H](OC(=O)N[C@H](c2nccn2C[C@H]2CCCN2C)C(C)C)CC[C@]2(CO2)[C@H]1[C@@]1(C)O[C@@H]1CC=C(C)C [Example 5, (3R,4S,5S,6R)-5-methoxy-4-((2R,3R)-2-methyl-3-(3-methylbut-2-enyl)oxiran-2-yl)-1-oxaspiro[2.5]octan-6-yl (S)-2-methyl-1-(1-(((R)-1-methylpyrrolidin-2-yl)methyl)-1H-imidazol-2-yl)propylcarbamate formate] | 50 to 500 nM | 3.1% | –
14 | CO[C@@H]1[C@H](OC(=O)N[C@H](Cc2nnc[nH]2)C(C)C)CC[C@]2(CO2)[C@H]1[C@@]1(C)O[C@@H]1CC=C(C)C [Example 31, (3R,4S,5S,6R)-5-methoxy-4-((2R,3R)-2-methyl-3-(3-methylbut-2-enyl)oxiran-2-yl)-1-oxaspiro[2.5]octan-6-yl (R)-3-methyl-1-(4H-1,2,4-triazol-3-yl)butan-2-ylcarbamate] | < 50 nM | 2.4% | 2.5%
15 | CO[C@@H]1[C@H](OC(=O)N[C@H](c2cn(CC(C)C)cn2)C(C)C)CC[C@]2(CO2)[C@H]1[C@@]1(C)O[C@@H]1CC=C(C)C [Example 42, (3R,4S,5S,6R)-5-methoxy-4-((2R,3R)-2-methyl-3-(3-methylbut-2-en-1-yl)oxiran-2-yl)-1-oxaspiro[2.5]octan-6-yl ((S)-1-(1-isobutyl-1H-imidazol-4-yl)-2-methylpropyl)carbamate] | < 50 nM | 10% | –
